Legend:
[1] = target: T1, FLK-1 receptor (Mus musculus, UniProt P35918); assay: FLK-1 ELISA (kinase activity of the FLK-1 receptor in FLK-1/NIH3T3 cells, VEGF stimulated); assay type: cell-based
T1 construct: expressed in transfected cells; host or cells: NIH3T3 C7#3
In short: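 NIH3T3 C7#3 cells expressing FLK-1 were seeded at 25.000 cells/well, serum-starved overnight in 0.1% FBS, then treated with compound for two hours at 37°C (final DMSO 0.5%) before VEGF stimulation. Receptor was captured on anti-rabbit IgG-coated ELISA plates bearing affinity-purified anti-FLK-1 antiserum.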

[2] = test system: MET; assay: MET biochemical kinase assay; set-up: species or system human; concentration or dose not given beside the values
In short: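 Lysate-derived MET, or chimeric receptors, is immobilised on plates through an antibody to the human MET cytoplasmic region. Compounds are added along with kinase buffer supplying ATP and divalent metal ions, and receptor autophosphorylation is quantified by anti-phosphotyrosine ELISA.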

T1 sequence (P35918 20-1345): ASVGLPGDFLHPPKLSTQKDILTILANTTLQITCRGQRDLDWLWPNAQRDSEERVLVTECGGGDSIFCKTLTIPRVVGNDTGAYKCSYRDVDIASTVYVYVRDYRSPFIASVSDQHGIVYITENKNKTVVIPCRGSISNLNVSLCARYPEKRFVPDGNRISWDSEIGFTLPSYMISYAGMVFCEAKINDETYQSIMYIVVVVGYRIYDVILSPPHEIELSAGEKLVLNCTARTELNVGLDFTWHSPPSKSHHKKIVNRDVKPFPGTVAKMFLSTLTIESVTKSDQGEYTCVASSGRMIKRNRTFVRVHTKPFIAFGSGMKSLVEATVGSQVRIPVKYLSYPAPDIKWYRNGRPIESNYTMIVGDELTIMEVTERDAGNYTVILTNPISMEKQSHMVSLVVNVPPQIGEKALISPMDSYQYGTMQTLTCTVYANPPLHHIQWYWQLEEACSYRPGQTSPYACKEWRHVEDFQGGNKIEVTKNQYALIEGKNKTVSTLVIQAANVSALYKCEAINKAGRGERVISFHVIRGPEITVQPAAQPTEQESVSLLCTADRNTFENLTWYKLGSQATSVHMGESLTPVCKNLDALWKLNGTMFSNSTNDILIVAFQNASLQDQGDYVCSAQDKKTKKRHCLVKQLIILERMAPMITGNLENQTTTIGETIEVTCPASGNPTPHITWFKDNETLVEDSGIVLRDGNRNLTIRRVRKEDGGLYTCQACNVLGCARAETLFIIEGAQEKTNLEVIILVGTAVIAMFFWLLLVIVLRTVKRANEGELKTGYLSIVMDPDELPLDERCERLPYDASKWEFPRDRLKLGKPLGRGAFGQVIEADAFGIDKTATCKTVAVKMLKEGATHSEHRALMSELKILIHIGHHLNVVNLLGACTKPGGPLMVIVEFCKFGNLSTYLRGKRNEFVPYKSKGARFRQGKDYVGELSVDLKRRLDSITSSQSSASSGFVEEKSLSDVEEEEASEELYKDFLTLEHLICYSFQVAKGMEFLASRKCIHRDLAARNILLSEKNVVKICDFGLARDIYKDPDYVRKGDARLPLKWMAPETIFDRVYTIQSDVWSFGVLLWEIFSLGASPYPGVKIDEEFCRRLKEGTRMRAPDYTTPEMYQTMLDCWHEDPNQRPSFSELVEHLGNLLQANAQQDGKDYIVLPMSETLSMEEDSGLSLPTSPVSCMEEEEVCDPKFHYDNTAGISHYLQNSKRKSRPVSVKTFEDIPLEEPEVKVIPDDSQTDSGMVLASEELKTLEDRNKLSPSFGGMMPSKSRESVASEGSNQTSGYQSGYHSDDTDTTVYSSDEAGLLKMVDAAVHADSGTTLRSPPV

Structure (SMILES)	Fik Kinase %Inhibition [1]	Met Kinase % Inhibition [2]
CC(C)(C)c1cc(C=C2C(=O)Nc3ccc(S(=O)(=O)Nc4ccc(C(F)(F)F)cc4)cc32)cc(C(C)(C)C)c1O [10721/E11]	0.7%	31.3%
CNS(=O)(=O)c1ccc2c(c1)C(=Cc1ccc(Br)cc1)C(=O)N2 [10717/D08]	6.8%	16.0%
Cc1cc(C=C2C(=O)Nc3c(Br)cc(Br)cc32)cc(C)c1O [10722/A07]	9.4%	64.1%
Cn1c(C=C2C(=O)Nc3ccc(S(=O)(=O)N4CCOCC4)cc32)nc2ccccc21 [10721/F02]	17.0%	27.8%
Cn1c(C=C2C(=O)Nc3ccc(S(=O)(=O)Nc4ccc(C(F)(F)F)cc4)cc32)nc2ccccc21 [10721/E02]	17.2%	38.8%
O=C1Nc2ccc(S(=O)(=O)N3CCOCC3)cc2C1=Cc1ccc(Cl)s1 [10721/F07]	4.8%	55.7%
CC(C)(C)c1cc(C=C2C(=O)Nc3ccc(S(=O)(=O)N4CCOCC4)cc32)ccc1O [10721/F09]	65.2%	52.5%
CNS(=O)(=O)c1ccc2c(c1)C(=Cc1cc(C)c(O)c(C)c1)C(=O)N2 [10722/D07]	14.1%	42.6%
CNS(=O)(=O)c1ccc2c(c1)C(=Cc1ccc(F)cc1)C(=O)N2 [10717/D05]	-3.8%	23.8%
CC(C)(C)c1cc(C=C2C(=O)Nc3ccc(I)cc32)cc([N+](=O)[O-])c1O [10722/B02]	10.1%	44.3%
CCCCN(CCCC)c1ccc(C=C2C(=O)Nc3ccc(I)cc32)cc1 [10722/B10]	-0.9%	56.4%
CC(C)(C)c1cc(C=C2C(=O)Nc3ccc(S(=O)(=O)Nc4ccc(C(F)(F)F)cc4)cc32)ccc1O [10721/E09]	36.9%	0.7%
CCOc1ccccc1C=C1C(=O)Nc2ccc(S(=O)(=O)NC)cc21 [10717/D02]	5.1%	28.6%
CNS(=O)(=O)c1ccc2c(c1)C(=Cc1c(O)cccc1OC)C(=O)N2 [10717/D10]	-6.0%	15.6%
CNS(=O)(=O)c1ccc2c(c1)C(=Cc1ccc(C)s1)C(=O)N2 [10717/D07]	-8.4%	16.8%
O=C1Nc2ccc(I)cc2C1=Cc1ccc(C(F)(F)F)cc1 [10722/B11]	5.2%	83.0%
CC(C)(C)c1cc(C=C2C(=O)Nc3ccc(S(=O)(=O)N4CCOCC4)cc32)cc(Br)c1O [10721/F10]	49.6%	79.9%
CCCCN(CCCC)c1ccc(C=C2C(=O)Nc3ccc(S(=O)(=O)NC)cc32)cc1 [10722/D10]	8.2%	40.5%
CC(C)(C)c1cc(C=C2C(=O)Nc3ccc(S(=O)(=O)Nc4ccc(C(F)(F)F)cc4)cc32)cc([N+](=O)[O-])c1O [10722/E02]	17.0%	71.1%
O=C1Nc2ccc(S(=O)(=O)N3CCOCC3)cc2C1=Cc1cc2c([nH]1)CCCC2 [10721/F05]	8.1%	67.8%
O=C1Nc2c(Br)cc(Br)cc2C1=Cc1ccc([N+](=O)[O-])s1 [10722/A04]	13.4%	51.4%
O=C1Nc2ccc(CCCl)cc2C1=Cc1cc2c([nH]1)CCCC2 [10721/G05]	-15.1%	8.6%
CC(C)(C)c1cc(C=C2C(=O)Nc3c(Br)cc(Br)cc32)cc(Cl)c1O [10722/A08]	13.7%	70.5%
Cc1cc(C)c(C=C2C(=O)Nc3ccc(S(=O)(=O)N4CCOCC4)cc32)[nH]1 [10721/F08]	-6.4%	76.1%
CNS(=O)(=O)c1ccc2c(c1)C(=Cc1csc([N+](=O)[O-])c1)C(=O)N2 [10722/D09]	14.7%	52.2%

Structure (SMILES)	Fik Kinase %Inhibition [1]	Met Kinase % Inhibition [2]
CNS(=O)(=O)c1ccc2c(c1)C(=Cc1ccc([N+](=O)[O-])s1)C(=O)N2 [10722/D04]	23.5%	63.4%
CNS(=O)(=O)c1ccc2c(c1)C(=Cc1cc(C(C)(C)C)c(O)c(C(C)(C)C)c1)C(=O)N2 [10721/D11]	20.6%	23.2%
O=C1Nc2c(Br)cc(Br)cc2C1=Cc1c(O)cc(O)cc1O [10722/A03]	6.7%	90.3%
O=C1Nc2c(Br)cc(Br)cc2C1=Cc1ccc(C(F)(F)F)cc1 [10722/A11]	6.7%	68.6%
CC(C)(C)c1cc(C=C2C(=O)Nc3ccc(S(=O)(=O)Nc4ccc(C(F)(F)F)cc4)cc32)cc(Cl)c1O [10722/E08]	18.6%	82.8%
CC(C)(C)c1cc(C=C2C(=O)Nc3ccc(CCCl)cc32)cc(C(C)(C)C)c1O [10721/G11]	-7.1%	-0.0%
CNS(=O)(=O)c1ccc2c(c1)C(=Cc1cc(Cl)c(O)c(C(C)(C)C)c1)C(=O)N2 [10722/D08]	29.1%	60.5%
CC(C)(C)c1cc(C=C2C(=O)Nc3ccc(S(=O)(=O)N4CCOCC4)cc32)cc(C(C)(C)C)c1O [10721/F11]	29.7%	78.2%
O=C1Nc2ccc(S(=O)(=O)Nc3ccc(C(F)(F)F)cc3)cc2C1=Cc1ccc(F)cc1F [10722/E06]	21.4%	71.6%
CNS(=O)(=O)c1ccc2c(c1)C(=Cc1cccn1C)C(=O)N2 [10717/D04]	-2.1%	21.0%
CC(C)(C)c1cc(C=C2C(=O)Nc3ccc(S(=O)(=O)Nc4ccc(C(F)(F)F)cc4)cc32)cc(Br)c1O [10721/E10]	9.3%	55.7%
O=C1Nc2ccc(S(=O)(=O)Nc3ccc(C(F)(F)F)cc3)cc2C1=Cc1ccc(Cl)s1 [10721/E07]	15.6%	43.6%
O=C1Nc2ccc(S(=O)(=O)Nc3ccc(C(F)(F)F)cc3)cc2C1=Cc1ccc(C(=O)O)cc1 [10722/E05]	19.2%	73.0%
CNS(=O)(=O)c1ccc2c(c1)C(=Cc1ccc(C(F)(F)F)cc1)C(=O)N2 [10722/D11]	9.6%	41.0%
O=C1Nc2ccc(I)cc2C1=Cc1c(O)cc(O)cc1O [10722/B03]	13.6%	40.1%
CNS(=O)(=O)c1ccc2c(c1)C(=Cc1ccc(F)cc1F)C(=O)N2 [10722/D06]	21.9%	32.4%
CNS(=O)(=O)c1ccc2c(c1)C(=Cc1ccc(C(=O)O)cc1)C(=O)N2 [10722/D05]	21.4%	35.8%
Cn1cc(Cl)c(C=C2C(=O)Nc3ccc(S(=O)(=O)N4CCOCC4)cc32)n1 [10721/F03]	9.1%	40.6%
CNS(=O)(=O)c1ccc2c(c1)C(=Cc1c[nH]c3ccccc13)C(=O)N2 [10717/D06]	1.0%	33.8%
O=C1Nc2c(Br)cc(Br)cc2C1=Cc1csc([N+](=O)[O-])c1 [10722/A09]	7.3%	86.5%
Cc1cc(C=C2C(=O)Nc3ccc(S(=O)(=O)Nc4ccc(C(F)(F)F)cc4)cc32)cc(C)c1O [10722/E07]	24.3%	71.6%
Cc1cc(C=C2C(=O)Nc3ccc(S(=O)(=O)N4CCOCC4)cc32)sc1C [10721/F04]	7.4%	26.0%
CCCCN(CCCC)c1ccc(C=C2C(=O)Nc3c(Br)cc(Br)cc32)cc1 [10722/A10]	6.6%	79.0%
O=C1Nc2c(Br)cc(Br)cc2C1=Cc1ccc(F)cc1F [10722/A06]	9.6%	71.6%

From patent publication EP1247803A2, “Indolinone compounds suitable for modulation of protein kinases” (Sugen, Inc., priority 1996, dated 1998)
